Some test systems named below: SF-295 CNS; HCT-116 colon; HCT-15 colon; ACHN renal; NCI/ADR-RES ovarian; MDA-MB-231 breast; CAKI-1 renal; RPMI-8226 leukemia; MALME-3M melanoma; LOX IMVI melanoma.
Holding throughout (experiment): inhibition of tumour cell growth, NCI panel, 48 h

Structures are written as SMILES. Several values for one entry are separate records, joined by “and”; a condition that tells them apart may be missing. Equal values may be shown once.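 Interpolation was linear, between the two tested concentrations surrounding the appropriate level; five concentrations were tested over 48 hours in 96-well plates. GI50 is the concentration that inhibits growth by half. TGI is the concentration that stops growth completely.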 Where only a bound is given, the exact number is not on record here.

The values below come from PubChem BioAssay (NCI).

For the compound `CC1=C2C(=CO[C@H](C)[C@H]2C)C(=O)C(C(=O)O)=C1O`, the GI50 is 24.7 µM in the assay with SF-295 CNS; 19.6 µM with HCT-15 colon; 26.9 µM in the assay on NCI/ADR-RES ovarian; 16.6 µM in the assay with CAKI-1 renal; 25.4 µM in the assay on RPMI-8226 leukemia; 21 µM in the assay with MALME-3M melanoma. The GI50 in the assay on LOX IMVI melanoma is 20.1 µM. Besides, the TGI was 97.1 µM and 61.3 µM in the assay with SF-295 CNS; 82.2 µM and 78.5 µM in the assay on HCT-116 colon; 60.3 µM and 40.8 µM with HCT-15 colon; 46.7 µM in the assay with ACHN renal; 79.4 µM and 152 µM with NCI/ADR-RES ovarian; 58.5 µM in the assay with MDA-MB-231 breast. Further, the TGI with CAKI-1 renal was 54.2 µM and 77.8 µM; in the assay on RPMI-8226 leukemia it was 63.3 µM and 58.3 µM; in the assay with MALME-3M melanoma, 54.4 µM and 115 µM; in the assay with LOX IMVI melanoma, 44.7 µM and 53.8 µM.

On to `COc1cc(C2c3cc4c(cc3C3OC[C@@H]2C3CO)OCO4)cc(OC)c1OC` (stereo partly drawn), for which the TGI with SF-295 CNS was above 100 µM; with HCT-116 colon, above 100 µM; in the assay with HCT-15 colon, 71.5 µM; with ACHN renal, above 100 µM; in the assay with NCI/ADR-RES ovarian, 39.3 µM; with MDA-MB-231 breast it was above 100 µM. Besides, the TGI in the assay with CAKI-1 renal, in the assay on RPMI-8226 leukemia, with MALME-3M melanoma and with LOX IMVI melanoma was above 100 µM in each case. Further, the GI50 with HCT-116 colon was 30.3 µM.

Take `COc1cnc2c(c1)C(=O)c1c-2n(CCCNCCO)c(=O)c2ccncc12`: the GI50 in the assay with SF-295 CNS was 0.912 µM; with HCT-116 colon it was 0.489 µM; in the assay on HCT-15 colon, 2.3 µM; in the assay with ACHN renal, 0.553 µM; in the assay with NCI/ADR-RES ovarian it was 5.83 µM; in the assay on MDA-MB-231 breast, 1.95 µM. Further, the GI50 in the assay on CAKI-1 renal is 1.37 µM; in the assay with RPMI-8226 leukemia, 1.85 µM; in the assay on MALME-3M melanoma it was 1.1 µM; in the assay on LOX IMVI melanoma it was 0.431 µM. The TGI turned out to be 7.89 µM in the assay with SF-295 CNS; 16.9 µM in the assay on HCT-116 colon; 13.7 µM in the assay on HCT-15 colon; 9.93 µM in the assay with ACHN renal; 30.8 µM with NCI/ADR-RES ovarian; 10.9 µM in the assay with MDA-MB-231 breast. The TGI in the assay with CAKI-1 renal is 13 µM; in the assay on RPMI-8226 leukemia it was 7.58 µM; in the assay on MALME-3M melanoma, 2.82 µM; with LOX IMVI melanoma, 3.9 µM.

Take `C=C(C)[C@H]1C2=CC(C)=C(O2)[C@@H](O[C@@H]2c3oc(cc3C)[C@H](C(=C)C)[C@H]3C=C(CC[C@H]2C(=C)C)C(=O)O3)[C@H](C(=C)C)CCC2=C[C@H]1OC2=O`: the TGI in the assay on SF-295 CNS, with HCT-116 colon, in the assay with HCT-15 colon, in the assay with ACHN renal, in the assay on NCI/ADR-RES ovarian and in the assay with MDA-MB-231 breast was above 100 µM throughout. For the same compound, the TGI with CAKI-1 renal, with RPMI-8226 leukemia, in the assay with MALME-3M melanoma and with LOX IMVI melanoma was above 100 µM throughout.

As to `N#Cc1cc2c(n(C3OC(CO)C(O)C(O)C3O)c1=S)CCCCCC2` (stereo not drawn), the TGI with SF-295 CNS, in the assay with HCT-116 colon, in the assay with HCT-15 colon, with ACHN renal, in the assay with NCI/ADR-RES ovarian and in the assay on MDA-MB-231 breast was above 100 µM throughout. Besides, the TGI in the assay with CAKI-1 renal, with RPMI-8226 leukemia, with MALME-3M melanoma and with LOX IMVI melanoma was above 100 µM each time.

Take `NN=C(CC(O)(C(F)(F)Cl)C(F)(F)Cl)CC(O)(C(F)(F)Cl)C(F)(F)Cl`: the TGI with SF-295 CNS, in the assay with HCT-116 colon, in the assay on HCT-15 colon, in the assay with ACHN renal, with NCI/ADR-RES ovarian and in the assay with MDA-MB-231 breast was above 10 µM in each case. The TGI in the assay with CAKI-1 renal, in the assay with RPMI-8226 leukemia, with MALME-3M melanoma and in the assay on LOX IMVI melanoma was above 10 µM each time.

Turning to `C=C=C(CC(CC(=C)Br)(C(=O)OC)C(=O)OC)S(=O)(=O)c1ccccc1`, the TGI is 26.9 µM with SF-295 CNS; 2.22 µM in the assay on HCT-116 colon; 3.44 µM in the assay on HCT-15 colon; 6.83 µM in the assay on ACHN renal; 5.96 µM in the assay on NCI/ADR-RES ovarian; 4.93 µM in the assay on MDA-MB-231 breast. Besides, the TGI came to 2.71 µM in the assay with CAKI-1 renal, 4.37 µM in the assay on RPMI-8226 leukemia, 4.11 µM in the assay on MALME-3M melanoma and 1.7 µM in the assay on LOX IMVI melanoma.

Regarding `CC(C)(C)CC(C)(C)c1cc(O)c(O)c(CN2CCCCC2)c1`, the TGI in the assay with SF-295 CNS is 32.3 µM; with HCT-116 colon it was 29.5 µM; in the assay on HCT-15 colon it was 15.9 µM; with ACHN renal, 25.6 µM; with NCI/ADR-RES ovarian, 19 µM; in the assay with MDA-MB-231 breast, 32.6 µM. Further, the TGI was 27.9 µM in the assay with CAKI-1 renal, 30.6 µM with RPMI-8226 leukemia, 25.9 µM in the assay with MALME-3M melanoma and 24.3 µM with LOX IMVI melanoma.

Take `Cc1ccc(S(=O)CC(CF)OCn2cc(C)c(=O)[nH]c2=O)cc1` (stereo not drawn): the TGI in the assay with SF-295 CNS, in the assay on HCT-116 colon, in the assay with HCT-15 colon, with ACHN renal, in the assay with NCI/ADR-RES ovarian and in the assay on MDA-MB-231 breast was above 100 µM in each case. In addition, the TGI in the assay with CAKI-1 renal, in the assay on RPMI-8226 leukemia, with MALME-3M melanoma and in the assay with LOX IMVI melanoma was above 100 µM each time.

With `CC(C)/C(Cl)=N\OC(NC(=O)P(=O)(c1ccccc1)c1ccccc1)(C(F)(F)F)C(F)(F)F`, the TGI with SF-295 CNS came to 79.5 µM; in the assay with HCT-116 colon it was 21.5 µM; in the assay on HCT-15 colon, 37.8 µM; with ACHN renal, 16.3 µM; in the assay with NCI/ADR-RES ovarian it was 42.2 µM; in the assay on MDA-MB-231 breast, 34.4 µM. The TGI turned out to be 46.3 µM in the assay on CAKI-1 renal, 37.5 µM in the assay on RPMI-8226 leukemia, 20.9 µM in the assay on MALME-3M melanoma and 29.6 µM in the assay on LOX IMVI melanoma.

In the case of `CN(C)CCn1c(CO)nc2c1c(=O)n(C)c(=O)n2C`, the TGI in the assay on SF-295 CNS, with HCT-116 colon, with HCT-15 colon, in the assay with ACHN renal, in the assay on NCI/ADR-RES ovarian and with MDA-MB-231 breast was above 100 µM each time. Further, the TGI in the assay with CAKI-1 renal, in the assay with RPMI-8226 leukemia, with MALME-3M melanoma and in the assay on LOX IMVI melanoma was above 100 µM throughout.

With `CN1C(=O)C(O)C[C@@H]1c1ccccc1` (stereo partly drawn), the TGI in the assay with SF-295 CNS, in the assay on HCT-116 colon, in the assay on HCT-15 colon, in the assay with ACHN renal, in the assay with NCI/ADR-RES ovarian and with MDA-MB-231 breast was above 100 µM each time. The TGI with CAKI-1 renal, in the assay with RPMI-8226 leukemia, in the assay with MALME-3M melanoma and in the assay on LOX IMVI melanoma was above 100 µM each time.
